In PMC12582325 (Proceedings of the National Academy of Sciences of the …, 2025):
“And” between values parts separate entries of the source, which are not always exact repeats. Identical values can stand only once. Like-named read-outs stand apart in the source and are kept apart here. Where a SMILES comes first, the peptide text is derived from it.

Key:
[1] = test system: Bb.Ste2; type: cell-based, Beauveria bassiana
[2] = test system: Fo.Ste2; type: cell-based, Fusarium oxysporum
[3] = test system: Bc.Ste2; type: cell-based, Botrytis cinerea
[4] = test system: Fo.Ste2; type: cell-based, Fusarium oxysporum; remark: listed apart in the source
[5] = test system: Fg.Ste2; conditions: SC-AS/Urea compared to SC media with ammonium sulfate alone
[6] = test system: Bb.Ste2; type: cell-based, Beauveria bassiana; remark: listed apart in the source
[7] = test system: Hj.Hpr2; type: cell-based, Hypocrea jecorina
[8] = test system: no_GPCR (negative control lacking a GPCR); type: cell-based, Saccharomyces cerevisiae; conditions: SC-AS/Urea compared to SC media with ammonium sulfate alone
[9] = biological target: T1, Sc Ste2 (Saccharomyces cerevisiae, UniProt D6VTK4); type: cell-based
T1 construct: The native Sc system and an empty construct were added as positive and negative controls; endogenous in cells; host or cells: Saccharomyces cerevisiae wild-type control strains GEN18 (MATa) and GEN27 (MATα)
T1 sequence (D6VTK4 1-431): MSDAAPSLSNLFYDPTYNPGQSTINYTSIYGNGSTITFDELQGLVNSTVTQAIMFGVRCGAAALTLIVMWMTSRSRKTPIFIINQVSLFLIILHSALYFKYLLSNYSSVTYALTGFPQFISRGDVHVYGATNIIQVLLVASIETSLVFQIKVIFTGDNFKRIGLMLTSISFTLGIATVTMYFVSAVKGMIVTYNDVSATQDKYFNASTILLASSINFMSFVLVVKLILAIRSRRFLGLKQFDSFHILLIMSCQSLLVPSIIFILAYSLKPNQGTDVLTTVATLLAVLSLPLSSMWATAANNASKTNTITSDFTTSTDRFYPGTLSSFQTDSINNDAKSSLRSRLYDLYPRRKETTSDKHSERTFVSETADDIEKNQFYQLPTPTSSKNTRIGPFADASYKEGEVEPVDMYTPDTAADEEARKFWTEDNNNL

[10] = test system: Ca.Ste2; type: cell-based, Candida albicans
[11] = test system: Fg.Ste2; type: cell-based, Fusarium graminearum
[12] = test system: Fo.Ste2; type: cell-based, Fusarium oxysporum; remark: listed apart in the source
[13] = test system: Bb.Ste2; type: cell-based, Beauveria bassiana; remark: listed apart in the source
[14] = test system: Hj Ste2 GPCR (Hj.Hpr2); type: cell-based, Hypocrea jecorina
[15] = test system: Bc.Ste2; type: cell-based, Botrytis cinerea; remark: listed apart in the source
[16] = test system: Mo Ste2 GPCR; type: cell-based, Magnaporthe oryzae
[17] = test system: Nc Ste2 GPCR; type: cell-based, Neurospora crassa
[18] = test system: empty (strain lacking a GPCR); type: cell-based, Saccharomyces cerevisiae
[19] = test system: Fg.Ste2; type: cell-based, Fusarium graminearum; remark: listed apart in the source
[20] = test system: Bc.Ste2; type: cell-based, Botrytis cinerea; conditions: 0.0005 μM Bc pheromone in combination with 10 μM peptide; four biological replicates; Fig. 2G
[21] = test system: B. bassiana; type: cell-based, Beauveria bassiana; conditions: 20 hours
[22] = test system: F. oxysporum microconidia; test: Germination of F. oxysporum microconidia; type: cell-based, Fusarium oxysporum f. sp. lycopersici 4287; set-up: Germination of F. oxysporum microconidia (data of Sup.Fig.10): unit not given here; conditions: for Germination of F. oxysporum microconidia (data of Sup.Fig.10): 400 μM pheromone, 13 h, at least 300 spores counted
Method: For F. oxysporum microconidia production, the strain was grown for 3 to 4 d in liquid potato dextrose broth (PDB) at 28 °C and 170 rpm. Germination media ([10]) was used for assessing the spore germination. RE was prepared by removing 2-wk-old tomato plants from vermiculite and washing the roots to remove any adhering substrates ([11]).
Supplementary Figure 10. Germination of F. oxysporum microconidia after 13 h of incubation in Germination Media at a cell density of […] microconidia/mL. The assay was performed with 400 μM of pheromone. All points represent the average of three biological replicates in which at least 300 spores were counted. Statistical significance was determined through one-way analysis of variance (ANOVA) with Dunnett’s multiple comparisons (✱p ≤ 0.05).

[23] = test system: F. oxysporum germ tubes; conditions: gradient of 400 μM pheromone against the solvent (50% methanol); 13 h; water-agar; three biological replicates; Fig. 5A
Method: For the B. bassiana and F. oxysporum chemotropism assay and plant infection assays the pheromones were dissolved in 50% (v/v) MeOH to reach a concentration of 4,000 μM.
Fungal chemotropism was conducted as previously described ([11]). For each compound or combination of compounds tested, 300 hyphal tips were scored. All experiments were performed in three biological replicates.

[24] = Fig. 1D mating matrix, pheromone secreted by MATa strain, GPCR in MATα strain, deep well plate, 20 h coculture, three technical plating replicates
[25] = Fig. 1D mating matrix, pheromone secreted by MATa strain, MATα strain lacking a GPCR (empty), deep well plate, 20 h coculture

Compound: CC(C)C[C@H](NC(=O)[C@H](CS)NC(=O)[C@@H](N)Cc1c[nH]c2ccccc12)C(=O)N[C@@H](CCCNC(=N)N)C(=O)N[C@H](C(=O)NCC(=O)N[C@@H](CCC(N)=O)C(=O)N1CCC[C@H]1C(=O)N[C@@H](CS)C(=O)N[C@@H](Cc1c[nH]c2ccccc12)C(=O)O)C(C)C [A1] (H-WCLRVGQPCW-OH; N-terminus and C-terminus assumed)
- logEC50 [1]: -9.317

Compound: NCCCC[C@H](NC(=O)[C@H](CO)NC(=O)CNC(=O)[C@H](CS)NC(=O)[C@@H](N)Cc1c[nH]c2ccccc12)C(=O)NCC(=O)N[C@@H](CCC(N)=O)C(=O)N1CCC[C@H]1C(=O)N[C@@H](CS)C(=O)N[C@@H](Cc1c[nH]c2ccccc12)C(=O)O [A2] (H-WCGSKGQPCW-OH; N-terminus and C-terminus assumed)
- Activation of Bb.Ste2 biosensor, in words [1]: higher EC50 values
- Hillslope [1]: 1.362
- logEC50 [1]: -3.661

Compound: CC(C)C[C@H](NC(=O)[C@H](CS)NC(=O)[C@@H](N)Cc1c[nH]c2ccccc12)C(=O)N[C@@H](Cc1c[nH]c2ccccc12)C(=O)N[C@@H](CCCNC(=N)N)C(=O)NCC(=O)N[C@@H](CCC(N)=O)C(=O)N1CCC[C@H]1C(=O)N[C@@H](CS)C(=O)N[C@@H](Cc1c[nH]c2ccccc12)C(=O)O [A5] (H-WCLWRGQPCW-OH; N-terminus assumed)
- EC50 fold lower than that of the native Fo alpha pheromone [2]: at least 13 fold
- logEC50 [2]: -8.637

Compound: CC(C)C[C@H](NC(=O)[C@H](CC(C)C)NC(=O)[C@H](CS)NC(=O)[C@@H](N)Cc1c[nH]c2ccccc12)C(=O)N[C@@H](CC(=O)O)C(=O)NCC(=O)N[C@@H](CCC(N)=O)C(=O)N1CCC[C@H]1C(=O)N[C@@H](CS)C(=O)N[C@@H](Cc1c[nH]c2ccccc12)C(=O)O [A6] (H-WCLLDGQPCW-OH; N-terminus and C-terminus assumed)
- Hillslope [3]: 0.5567
- logEC50 [3]: -8.01
- Sup.Fig.3A Bc.Ste2 biosensor response, group mean ([3]; 10 μM): 1.225

Compound: NC(N)=O [Urea]
- Effect on abundance of diploids with Fo.Ste2 [4]: did not affect
- Fold decrease in the abundance of diploids with Fg.Ste2 [5]: 0.8 fold
- Increase of diploids containing Bb.Ste2 [6]: fourfold
- Fold increase of diploids containing Hj.Hpr2 [7]: 20 fold
- Effect on abundance of diploids with the control strain no_GPCR [8]: did not affect

Compound: QWCRIHGQSCW [Nc, alpha pheromone of Neurospora crassa]
- Diploid frequency (%) [9]: 0.0%
- Diploid frequency (%) [10]: 0.0%
- Diploid frequency (%) [11, 24]: 0.0%
- Diploid frequency (%) [12]: 0.0%
- Diploid frequency (%) [13, 24]: 0.0%
- Diploid frequency (%) [14]: 0.0%
- Diploid frequency (%) [15]: 0.1%
- Diploid frequency (%) [16, 24]: 0.0%
- Diploid frequency (%) [17]: 2.8%
- Diploid frequency (%) [18, 25]: 0.1%

Compound: WCIQSGQPCW [A3, Fg.Ste2 - Agonist candidate from the YPL1 pheromone library]
- Sup.Fig.3A Fg.Ste2 biosensor response, group mean ([19]; Control mean 1, mean of n = 4): 1.455
- Activation of Fg.Ste2 biosensor, in words ([19]; chemically synthesized pheromone): almost no effect

Compound: WCYRIGEPCW [Hj, alpha pheromone of Hypocrea jecorina (Trichoderma reseei)]
- Diploid frequency (%) [9]: 0.0%
- Diploid frequency (%) [10]: 0.1%
- Diploid frequency (%) [11]: 0.0%
- Diploid frequency (%) [12]: 0.0%
- Diploid frequency (%) [13]: 4.9%
- Diploid frequency (%) [14]: 0.1%
- diploid frequency (%), Plates, Hj [14]: 0.67% and 0.16% and 0.05% and 1.62% and 0.03% and 1.07% and 0.1% and 0.01%
- Diploid frequency (%) [15]: 0.1%
- Diploid frequency (%) [16]: 0.1%
- Diploid frequency (%) [17]: 0.1%
- Diploid frequency (%) [18]: 0.1%
- Sup.Fig.7B - Hj, group mean ([7]; pH=6): 0.1033
- Sup.Fig.7B - Hj, group mean ([7]; pH=7): 0.03
- qPCR, Hj + Hj ([7]; ph=7): 0.0033

Compound: WHWLQLKPGQPMY [Sc, alpha pheromone of Saccharomyces cerevisiae]
- Diploid frequency (%) [9]: 90.9%
- Diploid frequency (%) [10]: 0.0%
- Diploid frequency (%) [11, 24]: 0.0%
- Diploid frequency (%) [12]: 0.0%
- Diploid frequency (%) [13, 24]: 0.0%
- Diploid frequency (%) [14]: 0.0%
- Diploid frequency (%) [15]: 0.1%
- Diploid frequency (%) [16, 24]: 0.2%
- Diploid frequency (%) [17]: 0.0%
- Diploid frequency (%) [18, 25]: 0.2%

Compound: WRWPCCWGQT [Scrambled]
- Effect on activation of Bc.Ste2 by Bc pheromone, in words [20]: do not differ significantly from Bc alone
- Chemotropic response in Bb germ tubes [21]: did not
- Germination of F. oxysporum microconidia (data of Sup.Fig.10) ([22]; biological replicate 1 (first line)): 53,95
- Germination of F. oxysporum microconidia (data of Sup.Fig.10) ([22]; biological replicate 2 (second line)): 33,33
- Germination of F. oxysporum microconidia (data of Sup.Fig.10) ([22]; biological replicate 3 (third line)): 27,4
- Mean Diff, Solvent vs. peptide ([22]; Sup.Fig.10, Dunnett's multiple comparisons test, n = 3): 5,543
- Mean 2 (peptide), germination ([22]; Sup.Fig.10, Solvent control mean 43,77, mean of n = 3): 38,23
- Chemotropic response in F. oxysporum germ tubes [23]: did not
